Test results published in patent US20230295115A1, “SUBSTITUTED ISOQUINOLINYLMETHYL AMIDES, ANALOGUES THEREOF, AND METHODS USING SAME” (priority 2020, published 2023).
Read-outs that look alike come from different tables or passages of the source.

Tested on: HBV rcDNA
Test: HepDE19 assay with bDNA quantitation of HBV rcDNA
Assay type: cell-based, hepatitis B virus (HBV)
Method: HepDE19 assay with bDNA quantitation of HBV rcDNA:
HepDE19 (50,000 cells/well) were plated in 96-well collagen-coated tissue-culture treated microtiter plates in DMEM/F12 medium supplemented with 10% fetal bovine serum, 1% penicillin-streptomycin and 1 μg/mL tetracycline and incubated in a humidified incubator at 37° C. and 5% CO2 overnight. Next day, the cells were switched to fresh medium without tetracycline and incubated for 4 hours at 37° C. and 5% CO2. […] The final DMSO concentration in the assay was 0.5%. The plates were incubated for 7 days in a humidified incubator at 37° C. and 5% CO2. Following a 7 day-incubation, the level of rcDNA present in the inhibitor-treated wells was measured using a Quantigene 2.0 bDNA assay kit (Affymetrix, Santa Clara, CA) with HBV specific custom probe set and manufacturers instructions. Concurrently, the effect of compounds on cell viability was assessed using replicate plates, plated at a density of 5,000 cells/well and incubated for 4 days, to determine the ATP content as a measure of cell viability using the cell-titer glo reagent (CTG; Promega Corporation, Madison, WI) as per manufacturer's instructions.

[1] = HepDE19 cells, 7 day incubation, rcDNA measured by Quantigene 2.0 bDNA assay, top concentration 25 μM, read-out: DE-19bDNA EC50
[2] = Hepatitis B virus, HepDE19, 168 h, read-out: DE-19bDNA EC50 (μM), HepDE19 cells, 7 day incubation, rcDNA measured by Quantigene 2.0 bDNA assay, top concentration 25 μM
[3] = read-out: DE-19bDNA EC50, HepDE19 cells, 7 day incubation, rcDNA measured by Quantigene 2.0 bDNA assay, top concentration 25 μM

| SMILES | EC50 [1] [µM] | other results |
| --- | --- | --- |
| CC(c1c[nH]c(=O)c2cc(F)c(F)cc12)N(C)C(=O)c1cc2cccc(F)c2[nH]1 (single isomer, unassigned) [Compound 14, N-(1-(6,7-Difluoro-1-oxo-1,2-dihydroisoquinolin-4-yl)ethyl)-7-fluoro-N-methyl-1H-indole-2-carboxamide] | 0.02 |  |
| CC(c1c[nH]c(=O)c2cc(F)c(F)cc12)N(C)C(=O)C1Nc2ccccc2C1(C)C (centres unmarked) [Compound 115, N-(1-(6,7-Difluoro-1-oxo-1,2-dihydroisoquinolin-4-yl)ethyl)-N,3,3-trimethylindoline-2-carboxamide] | 19 |  |
| CC(c1c[nH]c(=O)c2cc(F)c(F)cc12)N(C)C(=O)c1cc2ccccc2[nH]1 (single isomer, unassigned) [Compound 1, N-(1-(6,7-Difluoro-1-oxo-1,2-dihydroisoquinolin-4-yl)ethyl)-N-methyl-1H-indole-2-carboxamide] | 2.5 |  |
| CC(c1c[nH]c(=O)c2cc(F)c(F)cc12)N(C)C(=O)c1cc2cc(Cl)ccn2c1 (single isomer, unassigned) [Compound 96, 7-Chloro-N-(1-(6,7-difluoro-1-oxo-1,2-dihydroisoquinolin-4-yl)ethyl)-N-methylindolizine-2-carboxamide] | 4.6 |  |
| CC(c1c[nH]c(=O)c2cc(F)c(F)cc12)N(C)C(=O)Cc1cc2ccccc2[nH]1 (racemic) [Compound 59, N-(1-(6,7-Difluoro-1-oxo-1,2-dihydroisoquinolin-4-yl)ethyl)-2-(1H-indol-2-yl)-N-methylacetamide] |  | EC50 [2]: 0.91 µM |
| CC(c1c[nH]c(=O)c2cc(F)c(F)cc12)N(C)C(=O)c1cc2ccccc2n1C (single isomer, unassigned) [Compound 44, N-(1-(6,7-Difluoro-1-oxo-1,2-dihydroisoquinolin-4-yl)ethyl)-N,1-dimethyl-1H-indole-2-carboxamide] | 0.3 |  |
| COc1ncc(C(C)N(C)C(=O)c2ccc(C(F)(F)F)c(F)c2)c2cc(F)c(F)cc12 (single isomer, unassigned) [Compound 175, N-(1-(6,7-Difluoro-1-methoxyisoquinolin-4-yl)ethyl)-3-fluoro-N-methyl-4-(trifluoromethyl)benzamide] | 24.3 |  |
| CC(c1c[nH]c(=O)c2cc(F)c(F)cc12)N(C)C(=O)[C@@H]1Cc2ccccc2N1 (single isomer, unassigned) [Compound 30] | 0.02 |  |
| CC(c1c[nH]c(=O)c2cc(F)c(F)cc12)N(C)C(=O)c1c[nH]c2ccccc12 (single isomer, unassigned) [Compound 54, N-(1-(6,7-Difluoro-1-oxo-1,2-dihydroisoquinolin-4-yl)ethyl)-N-methyl-1H-indole-3-carboxamide] | 5.1 |  |
| CC(c1c[nH]c(=O)c2cc(F)c(F)cc12)N(C)C(=O)c1ccc(F)c(F)c1 (single isomer, unassigned) [Compound 138, N-(1-(6,7-Difluoro-1-oxo-1,2-dihydroisoquinolin-4-yl)ethyl)-3,4-difluoro-N-methylbenzamide] | 0.45 |  |
| CC(c1c[nH]c(=O)c2cc(F)c(F)cc12)N(C)C(=O)c1ccc(C(F)(F)F)cc1 (single isomer, unassigned) [Compound 130, N-(1-(6,7-Difluoro-1-oxo-1,2-dihydroisoquinolin-4-yl)ethyl)-N-methyl-4-(trifluoromethyl) benzamide] | 0.02 |  |
| CC(c1cn(C)c(=O)c2cc(F)c(F)cc12)N(C)C(=O)c1ccc(Br)c(F)c1 (single isomer, unassigned) [Compound 162, 4-bromo-N-(1-(6,7-difluoro-2-methyl-1-oxo-1,2-dihydroisoquinolin-4-yl)ethyl)-3-fluoro-N-methylbenzamide] | 0.03 |  |
| C[C@H](c1c[nH]c(=O)c2ccccc12)N(C)C(=O)c1ccc(Br)cc1 [Compound 146, (R)-4-Bromo-N-methyl-N-(1-(1-oxo-1,2-dihydroisoquinolin-4-yl)ethyl)benzamide] |  | EC50 [2]: 0.15 µM |
| CC(c1c[nH]c(=O)c2cc(F)c(F)cc12)N(C)C(=O)c1ccc2ccn(C)c2c1 (single isomer, unassigned) [Compound 141, N-(1-(6,7-Difluoro-1-oxo-1,2-dihydroisoquinolin-4-yl)ethyl)-N,1-dimethyl-1H-indole-6-carboxamide] | > 25 |  |
| CC(c1c[nH]c(=O)c2cc(F)c(F)cc12)N(C)C(=O)c1ccc(F)c(Cl)c1 (single isomer, unassigned) [Compound 135, 3-Chloro-N-(1-(6,7-difluoro-1-oxo-1,2-dihydroisoquinolin-4-yl)ethyl)-4-fluoro-N-methylbenzamide] | 9.61 |  |
| CC(c1c[nH]c(=O)c2cc(F)c(F)cc12)N(C)C(=O)c1cc2c(F)cccc2[nH]1 (single isomer, unassigned) [Compound 7, N-(1-(6,7-Difluoro-1-oxo-1,2-dihydroisoquinolin-4-yl)ethyl)-4-fluoro-N-methyl-1H-indole-2-carboxamide] | 1.7 |  |
| CC(C)CN(C(=O)c1ccc(C(F)(F)F)c(F)c1)C(C)c1c[nH]c(=O)c2cc(F)c(F)cc12 (racemic) [Compound 117, N-(1-(6,7-Difluoro-1-oxo-1,2-dihydroisoquinolin-4-yl)ethyl)-3-fluoro-N-isobutyl-4-(trifluoromethyl)benzamide] |  | EC50 (Hepatitis B virus, HepDE19, 168 h, HepDE19 cells, 7 day incubation, rcDNA measured by Quantigene 2.0 bDNA assay, top concentration 25 μM, read-out: DE-19bDNA EC50): 0.24 µM |
| CC(c1c[nH]c(=O)c2cc(F)c(F)cc12)N(C)C(=O)C1Cc2cc(F)ccc2N1 (centres unmarked) [Compound 61, N-(1-(6,7-Difluoro-1-oxo-1,2-dihydroisoquinolin-4-yl)ethyl)-5-fluoro-N-methylindoline-2-carboxamide] | 6.7 |  |
| COc1ncc(C(C)N(C)C(=O)c2cc3cc(F)c(F)cc3[nH]2)c2cc(F)c(F)cc12 (single isomer, unassigned) [Compound 169, N-(1-(6,7-Difluoro-1-methoxyisoquinolin-4-yl)ethyl)-5,6-difluoro-N-methyl-1H-indole-2-carboxamide] | 0.13 |  |
| CC(c1c[nH]c(=O)c2c(F)c(F)ccc12)N(C)C(=O)c1cc2c([nH]1)CCC2 (single isomer, unassigned) [Compound 58, N-(1-(7,8-Difluoro-1-oxo-1,2-dihydroisoquinolin-4-yl)ethyl)-N-methyl-1,4,5,6-tetrahydrocyclopenta[b]pyrrole-2-carboxamide] | 1.8 |  |
| CC(c1c[nH]c(=O)c2cc(F)c(F)cc12)N(C)C(=O)c1nc2ccccc2[nH]1 (single isomer, unassigned) [Compound 23, N-(1-(6,7-Difluoro-1-oxo-1,2-dihydroisoquinolin-4-yl)ethyl)-N-methyl-1H-benzo[d]imidazole-2-carboxamide] | ≥ 25 |  |
| CC(c1c[nH]c(=O)c2cc(F)c(F)cc12)N(C)C(=O)[C@@H]1Cc2ccccc2CN1 (single isomer, unassigned) [Compound 20] | 9.2 |  |
| CC(c1c[nH]c(=O)c2cc(F)c(F)cc12)N(C)C(=O)c1ccc(Cl)cc1 (single isomer, unassigned) [Compound 132, 4-Chloro-N-(1-(6,7-difluoro-1-oxo-1,2-dihydroisoquinolin-4-yl)ethyl)-N-methylbenzamide] |  | EC50 [3]: 0.06 µM |
| CC(c1c[nH]c(=O)c2cc(F)c(F)cc12)N(CCCO)C(=O)c1[nH]c2ccccc2c1Cl (single isomer, unassigned) [Compound 94, 3-Chloro-N-(1-(6,7-difluoro-1-oxo-1,2-dihydroisoquinolin-4-yl)ethyl)-N-(3-hydroxypropyl)-1H-indole-2-carboxamide] | 19 |  |
| CC(c1c[nH]c(=O)c2cc(F)c(F)cc12)N(C)C(=O)c1ccc(Cl)cc1 (single isomer, unassigned) [Compound 131, 4-Chloro-N-(1-(6,7-difluoro-1-oxo-1,2-dihydroisoquinolin-4-yl)ethyl)-N-methylbenzamide] |  | EC50 [3]: 14.7 µM |
| COc1ncc(C(C)N(C)C(=O)[C@@H]2Cc3ccccc3N2)c2cc(F)c(F)cc12 (single isomer, unassigned) [Compound 182] | 24.7 |  |
| CC(c1cn(C)c(=O)c2cc(F)c(F)cc12)N(C)C(=O)[C@@H]1Cc2ccccc2N1 (stereo partly drawn) [Compound 184, (2S)-N-(1-(6,7-difluoro-2-methyl-1-oxo-1,2-dihydroisoquinolin-4-yl)ethyl)-N-methylindoline-2-carboxamide] | 4.2 |  |
| CC(c1c[nH]c(=O)c2cc(F)c(F)cc12)N(C)C(=O)c1nc2ccccc2[nH]1 (single isomer, unassigned) [Compound 24, N-(1-(6,7-Difluoro-1-oxo-1,2-dihydroisoquinolin-4-yl)ethyl)-N-methyl-1H-benzo[d]imidazole-2-carboxamide] | 0.76 |  |
| CC(c1c[nH]c(=O)c2cc(F)c(F)cc12)N(C)C(=O)c1cc2cc(F)ccc2[nH]1 (single isomer, unassigned) [Compound 9, N-(1-(6,7-Difluoro-1-oxo-1,2-dihydroisoquinolin-4-yl)ethyl)-5-fluoro-N-methyl-1H-indole-2-carboxamide] |  | EC50 [3]: 1.6 µM |
